# Results taken from the supplement of paper PMC10307832.
# Tests used:
# Experiment in all cases: relative viability (nuclei count vs DMSO), 5 days (fraction); higher = more cells survive
# [1] = compound: CC[C@H](Nc1ncnc2[nH]cnc12)c1nc2cccc(F)c2c(=O)n1-c1ccccc1 [Idelalisib] + COc1cc2c(Oc3ccc(NC(=O)C4(C(=O)Nc5ccc(F)cc5)CC4)cc3F)ccnc2cc1OCCCN1CCOCC1 [Foretinib] (partner 0.25 µM)
# In short: (§1)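 Relative viability equals treated-well nuclei counts divided by vehicle-well nuclei counts. Counts came from 4× images of lung cancer cell lines grown in 1536-well plates for 5 days after pin-tool dosing on the day after seeding. Dosing used one drug alone or a fixed anchor-drug dose plus five library-drug doses (not always all listed) in √10 steps, and values are medians of duplicate plates.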
# [2] = compound: CC[C@H](Nc1ncnc2[nH]cnc12)c1nc2cccc(F)c2c(=O)n1-c1ccccc1 [Idelalisib] + C[C@@H](Oc1cc(-c2cnn(C3CCNCC3)c2)cnc1N)c1c(Cl)ccc(F)c1Cl [Crizotinib] (partner 1 µM)
# In short: as §1
# [3] = compound: CC[C@H](Nc1ncnc2[nH]cnc12)c1nc2cccc(F)c2c(=O)n1-c1ccccc1 [Idelalisib] + O=C(CCCCCCC(=O)Nc1ccccc1)NO [Vorinostat] (partner 1 µM)
# In short: as §1
# [4] = compound: Nc1nc2[nH]cc(CCc3ccc(C(=O)N[C@@H](CCC(=O)O)C(=O)O)cc3)c2c(=O)[nH]1 [Pemetrexed] + Cc1cc(Nc2cc(N3CCN(C)CC3)nc(Sc3ccc(NC(=O)C4CC4)cc3)n2)n[nH]1 [Tozasertib] (partner 0.1 µM)
# In short: as §1
Cell Line,relative viability ([1]; first compound 0.04 µM),relative viability ([1]; first compound 0.1265 µM),relative viability ([1]; first compound 0.4 µM),relative viability ([1]; first compound 1.265 µM),relative viability ([1]; first compound 4 µM),relative viability ([2]; first compound 0.04 µM),relative viability ([2]; first compound 0.1265 µM),relative viability ([2]; first compound 0.4 µM),relative viability ([2]; first compound 1.265 µM),relative viability ([2]; first compound 4 µM),relative viability ([3]; first compound 0.04 µM),relative viability ([3]; first compound 0.1265 µM),relative viability ([3]; first compound 0.4 µM),relative viability ([3]; first compound 1.265 µM),relative viability ([3]; first compound 4 µM),relative viability ([4]; first compound 0.002 µM),relative viability ([4]; first compound 0.006325 µM),relative viability ([4]; first compound 0.02 µM),relative viability ([4]; first compound 0.06325 µM),relative viability ([4]; first compound 0.2 µM)
201T,1.09,1.07,0.741,1.11,0.993,1.02,1.07,0.999,1.08,1.02,1.01,0.982,0.874,0.997,0.755,0.833,0.97,0.971,0.976,0.871
A549,1.18,1.03,0.917,1,1.01,0.902,0.899,0.669,0.751,0.539,–,–,–,–,–,–,–,–,–,–
A-427,1.27,0.946,0.962,1.04,1.06,1.05,1.04,0.789,1.05,0.755,0.921,0.889,0.833,0.901,0.874,0.232,0.2,0.213,0.509,0.218
ABC-1,1.09,1.06,0.853,0.963,0.977,0.95,1.23,1.14,1.04,0.902,1.01,1.13,0.751,1.03,1.39,0.163,0.172,0.172,0.191,0.167
BEN,0.751,0.567,0.539,0.856,0.661,0.875,1.06,0.751,0.886,0.661,0.531,0.53,0.552,0.59,0.514,0.547,0.423,0.57,0.548,0.457
CAL-12T,1.27,1.13,1.09,1.16,1.39,0.769,0.636,0.562,0.635,0.518,0.831,0.689,0.65,0.704,0.648,0.337,0.276,0.329,0.286,0.277
COR-L23,1.12,1.02,0.982,1.08,0.898,0.881,0.678,0.67,0.712,0.393,0.535,0.396,0.396,0.535,0.421,0.229,0.196,0.197,0.12,0.105
COR-L 105,1.01,1.34,0.992,1.01,0.672,0.702,0.948,0.709,0.778,0.775,0.859,0.876,0.778,0.724,1.11,0.431,0.332,0.31,0.366,0.338
Calu-6,0.895,0.909,0.844,0.894,0.767,0.866,0.822,0.759,0.832,0.774,–,–,–,–,–,–,–,–,–,–
ChaGo-K-1,1.02,0.919,0.766,0.931,0.82,1.38,1.13,1.1,1.15,1.17,0.832,0.702,0.695,0.82,0.732,0.24,0.218,0.25,0.212,0.176
EBC-1,0.0986,0.0952,0.0971,0.107,0.0962,0.202,0.185,0.172,0.204,0.202,–,–,–,–,–,–,–,–,–,–
EKVX,0.826,0.984,0.773,0.843,0.808,0.83,0.897,0.633,0.753,0.752,0.726,0.792,0.676,0.703,0.399,0.373,0.398,0.37,0.367,0.263
EMC-BAC-2,0.972,0.988,0.963,0.868,0.963,0.788,0.796,0.676,0.742,0.732,0.639,0.42,0.419,0.496,0.633,0.327,0.255,0.296,0.278,0.244
EPLC-272H,0.793,0.667,0.662,0.635,0.517,0.891,0.853,0.753,0.739,0.748,0.422,0.405,0.431,0.292,0.452,0.284,0.261,0.225,0.251,0.306
H3255,0.641,0.569,0.853,0.939,0.921,0.77,0.898,0.757,0.876,0.734,0.978,0.853,0.796,0.91,0.736,0.653,0.707,0.754,0.709,0.555
HARA,1.24,0.934,0.776,1.04,0.746,1.2,0.988,0.894,0.988,0.991,0.453,0.504,0.473,0.574,0.39,0.13,0.0932,0.123,0.0911,0.0832
HCC-15,1.09,1.02,0.975,1.18,0.94,0.809,0.842,0.72,0.885,0.762,0.764,0.865,0.888,0.889,0.69,0.431,0.394,0.497,0.407,0.205

Cell Line,relative viability ([1]; first compound 0.04 µM),relative viability ([1]; first compound 0.1265 µM),relative viability ([1]; first compound 0.4 µM),relative viability ([1]; first compound 1.265 µM),relative viability ([1]; first compound 4 µM),relative viability ([2]; first compound 0.04 µM),relative viability ([2]; first compound 0.1265 µM),relative viability ([2]; first compound 0.4 µM),relative viability ([2]; first compound 1.265 µM),relative viability ([2]; first compound 4 µM),relative viability ([3]; first compound 0.04 µM),relative viability ([3]; first compound 0.1265 µM),relative viability ([3]; first compound 0.4 µM),relative viability ([3]; first compound 1.265 µM),relative viability ([3]; first compound 4 µM),relative viability ([4]; first compound 0.002 µM),relative viability ([4]; first compound 0.006325 µM),relative viability ([4]; first compound 0.02 µM),relative viability ([4]; first compound 0.06325 µM),relative viability ([4]; first compound 0.2 µM)
HCC-44,–,–,–,–,–,0.822,0.857,0.819,0.948,0.85,1.19,1.08,1.12,1.22,1.12,0.903,0.945,1.15,0.853,0.372
HCC-78,0.612,0.594,0.462,0.528,0.434,0.322,0.354,0.296,0.31,0.274,0.462,0.448,0.393,0.468,0.332,0.312,0.32,0.378,0.308,0.259
HCC-366,0.947,0.867,0.889,0.971,0.938,0.891,0.398,0.471,0.464,0.411,0.391,0.36,0.33,0.293,0.325,0.0686,0.0859,0.205,0.126,0.124
HCC-827,1.1,0.971,1.04,1.05,0.915,0.978,0.943,0.864,0.927,0.838,0.957,0.664,0.897,0.848,0.969,0.377,0.414,0.441,0.44,0.335
IA-LM,1.17,1.41,1.24,1.31,1.19,0.745,0.849,0.944,1.19,0.818,0.607,0.907,0.913,1.02,0.944,–,–,–,–,–
NCI-H522,–,–,–,–,–,–,–,–,–,–,0.964,0.846,0.929,0.901,0.956,0.544,0.518,0.582,0.56,0.593
NCI-H1299,1.14,1.16,1.11,1.16,1.2,0.99,0.969,0.919,1.08,1.01,–,–,–,–,–,–,–,–,–,–
NCI-H1395,1.02,0.959,0.976,0.963,0.707,–,–,–,–,–,0.841,0.813,0.692,0.674,0.692,0.783,0.721,0.826,0.717,0.79
NCI-H1563,0.969,0.941,0.873,0.877,0.788,0.774,0.87,0.793,0.828,0.728,–,–,–,–,–,–,–,–,–,–
NCI-H1623,0.849,0.8,0.754,0.706,0.846,–,–,–,–,–,–,–,–,–,–,0.409,0.357,0.425,0.433,0.434
NCI-H1648,–,–,–,–,–,–,–,–,–,–,0.395,0.483,0.357,0.224,0.31,0.531,0.486,0.595,–,0.542
NCI-H1703,0.344,0.356,0.311,0.399,0.303,0.857,0.56,0.631,0.754,0.315,–,–,–,–,–,–,–,–,–,–
NCI-H1792,–,–,–,–,–,0.612,0.987,0.804,0.979,1.01,–,–,–,–,–,–,–,–,–,–
NCI-H1793,0.764,0.54,0.381,0.685,0.409,–,–,–,–,–,0.764,0.699,–,0.75,0.582,0.3,0.286,0.402,0.323,0.403
NCI-H2342,1.02,1.11,0.886,0.896,0.729,–,–,–,–,–,0.801,0.736,0.689,0.664,0.736,0.454,0.497,0.573,0.589,0.486
SW 900,0.796,1.14,0.869,0.766,0.563,–,–,–,–,–,0.442,0.548,0.407,0.514,0.441,0.5,0.535,0.678,0.495,0.466
